# Test results as given in patent US7655751B2, “Epidermal growth factor receptor-derived peptides” (Green Peptide Co., Ltd., priority 2004, dated 2010).
# Peptide text beside a SMILES is read from it.
# Tested on: EGFR+ tumor cells
# Test: 51Cr-release assay: HLA-restricted and peptide-specific cytotoxicity (inhibition and competition assays)
# Format: cell-based, human
# Conditions: 6 h 51Cr-release assay
# Procedure: The values represent the mean ±SD of specific lysis (%).
# Furthermore, the HLA-restricted and peptide-specific cytotoxicity were confirmed by the inhibition and competition assays, respectively.
# For the inhibition assay, 20 μg/ml of anti-HLA-class I (W6/32, IgG2a), anti-HLA-class II (H-DR-1, IgG2a), anti-CD8 (Nu-Ts/c, IgG2a), anti-CD4 (Nu-Th/i, IgG1), and anti-CD14 (JML-H14, IgG2a) (as a negative control) mAbs were used. For the competition assay to study the peptide specific cytotoxicity, unlabeled C1R-2402 cells pulsed with the corresponding peptide or the HIV peptide as a negative control were added to the ^51Cr-release assay at a cold to hot target cell ratio of 10 to 1. The values represent the mean ±SD of specific lysis (%), and two-tailed Student's-t test was employed for the statistical analysis.
smiles,measurement,value
CC[C@H](C)[C@H](NC(=O)CNC(=O)[C@H](CC(C)C)NC(=O)[C@H](CC(C)C)NC(=O)[C@H](CCC(N)=O)NC(=O)[C@H](CCC(N)=O)NC(=O)[C@H](CC(=O)O)NC(=O)[C@H](CCCNC(=N)N)NC(=O)[C@H](CC(C)C)NC(=O)[C@H](Cc1ccc(O)cc1)NC(=O)[C@@H](N)CCCNC(=N)N)C(=O)O [HIV peptide] (H-RYLRDQQLLGI-OH),HLA-A24-restricted cytotoxicity of PBMCs stimulated with the peptide,did not show the HLA-A24-restricted cytotoxicity
